Earlier results as cited in patent EP2387991A1, “Vitamin E succinate stabilized pharmaceutical compositions, methods for the preparation and the use thereof” (Adventrx Pharmaceuticals, Inc., priority 2006, dated 2007).

- solubility in water: practically insoluble
SMILES: CC(=O)O[C@@]12CO[C@@H]1C[C@H](O)[C@@]1(C)C(=O)[C@H](O)C3=C(C)[C@@H](OC(=O)[C@H](O)[C@@H](NC(=O)OC(C)(C)C)c4ccccc4)C[C@@](O)([C@@H](OC(=O)c4ccccc4)[C@H]21)C3(C)C [Docetaxel, (2R,3S)-N-carboxy-3-phenylisoserine, N-tert-butyl ester, 13-ester with 5β-20-epoxy-1,2α-,4,7β,10β,13α-hexahydroxytax-11-en-9-one 4-acetate 2-benzoate, trihydrate]
